From patent publication US6043283A, “Tyramine compounds and their neuronal effects” (priority 1997, dated 2000)
“Also recorded” adds a separate entry of the source. Like-named read-outs stand apart in the source and are kept apart here. Ends that are not written are not given here.

Experiments:
[1] = tested on: NTox released by Aβ1-42-stimulated microglia (neuron killing); test: cells; type: cell-based, rat; details: for protective effect: 10 μM, 72 hours, FIG. 30; for neuroprotective effect: Aβ1-42-stimulated microglia
Description: . Briefly, hippocampal cells obtained from embryonic stage 18 rat fetuses were dispersed mechanically in the presence of 0.125% trypsin and plated onto poly-L-lysine coated glass coverslips in 24 well plates at 250,000 cells per well (resulting in adhering cell densities of about 1250 cells per mm^2) in chemically-defined N2 culture media containing 5% fetal bovine serum. Gradual reduction of serum began on day 10 in vitro with daily 1:1 volume replacements with chemically-defined media, until a final concentration of 0.6% serum was achieved. […]; see FIG. 18). In order to eliminate microglia, cultures were exposed to saporin (sap; a ribosome-inactivating protein; Davis and Wiley, 1989) coupled to acetylated LDL (ac-LDL) at a concentration of 10 μg/ml for 12 hours. […] Cultures depleted of microglia were then exposed to test substances in the presence or absence of exogenous microglia (100,000 cells per culture). […]. Controls included cultures without saporin-treatment, cultures without test substances, and cultures with test substances but lacking microglia.
(§1) On day 14 of culture, immediately following saporin treatment, test substances were added to the hippocampal cultures. Synthetic peptide were supplied as 1 mM stock solutions in 0.1 M phosphate buffered saline, pH 7.2, stored for at least 1 week at 4° C. before use. After 72 hours incubation, the cultures were fixed in 4% paraformaldehyde at room temperature for 18 hours and immuno-stained by overnight incubation with a mixture of anti-neurofilament antibodies (NF; SMI-311, 1:600; Stemberger Monoclonals, Inc.) plus anti-MAP-2 (Boehringer Mannheim, 184959; 1:600) at 4° C. in the presence of 2% horse serum and 0.3% triton X-100 to delineate both neuronal cell bodies and neurites. Astroglia were visualized using sheep anti-glial fibrillary acidic protein (GFAP, Sigma) as described by Giulian et al., 1989. Finally, to label all cell nuclei, the coverslips were exposed to 0.01% bisbenzimide (Hoechst 33258; Sigma) in PBS, pH 6.9, and rinsed in distilled water and mounted in glycerin. Immuno-labeled cells per field and nuclei per field were scored at 200X magnification using fluorescence microscopy. Data were expressed as % mean survival expressed in terms of parallel untreated control cultures after scoring at least 20 randomly selected fields for each of 3 coverslips.
The procedures described above and by Giulian et al, 1996, provided for the identification of tyramine compounds as therapeutic agents for neurodegenerative diseases or disorders including, for example, Alzheimer's disease. Cells from the brain of fetal rats were grown in tissue cultures. Microglial populations within the cultures were controlled following the method described in Example 5 above. Known amounts of Aβ peptides coupled to microspheres were added to the culture. The Aβ spheres stimulated the microglia to release NTox, which in turn destroyed the neurons. The neurons in the cultures were monitored for survival by immuno-staining.
Generally, drug assays involve the addition of known concentrations of a test agent over a range of concentrations. After 72 hours, the experiment is stopped and the neurons are identified by immuno-staining. The data is expressed as % neuronal survival […]. Dose response curves are then used to estimate Effective Dose50 % (ED50) of neuroprotective agents. […].
In this experiment, about 65% of the neurons were destroyed by the Aβ-stimulated microglia. […] Other tyramine compounds, including tyrosine esters, were neuroprotective (FIG. 30).
Following the methods described herein, numerous compounds were examined to determine their neuroprotective activity. […]

[2] = tested on: microglia; test: inhibition of SpheresAβ1-42 binding to microglia; set-up: species or system rat; details: for inhibition of SpheresAβ1-42 binding by GAGs and scavenger receptor ligands: heparin sulfate 50 μg/ml, dextran sulfate 500 μg/ml, ac-LDL 200 μg/ml; for inhibition of SpheresAβ1-42 binding by peptides: 10 μmoles/l, 4 hours, 37° C.
Experimental: Spheresmal-BSA (which bind to scavenger receptors) or SpheresAβ1-42 were incubated with microglia for 4 hours following pre-treatment of cells with trypsin (5000 units/ml at 37° C. for 60 min followed by inactivation with soybean trypsin inhibitor), with heparinase (heparin lyase EC 4.2.2.7; two consecutive treatments each of 0.01 units/ml for 60 min), or with chondroitinase ABC (chondroitin ABC lyase EC 4.3.3.4; two consecutive treatments each of 0.02 units/ml for 60 min). […] Microglia mixed with hippocampal neurons were treated with combinations of β-D-xyloside (1 mm), heparinase (0.02 units/ml), or chondroitinase (0.04 units/ml) and then exposed to plaques.
Each well then received 250,000 SpheresAβ1-42 or Spheresmal-BSA in the presence or absence of Aβ peptides, GAGs, or scavenger receptor ligands. Binding assays were carried out at 37° C. for 4 hours after which coverslips were dipped 10 times in phosphate buffer and fixed with 4% buffered paraformaldehyde. Microsphere adherence to cells was scored at 200 magnification with phase/fluorescence microscopy. Data, expressed as % inhibition of sphere binding, was calculated from total number of spheres per field noted for control cultures receiving spheres only. Values are based upon at least 3 coverslips from 2 independent experiments. […] Washed spheres were resuspended in 0.2 M borate buffer (pH 8.5) in the presence of 300 μg Aβ or 400 μg BSA in 6% DMSO. After overnight mixing at room temperature, the spheres were washed extensively and blocked by 1 M glycine (pH 8.0) for 30 minutes.

[3] = tested on: human microglia stimulated with S5; type: cell-based;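 also: drugs applied at 10 µM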
[4] = tested on: Aβ1-42-stimulated microglia; type: cell-based, rat; details: for effect of signal transduction inhibitors on microglia stimulated by Aβ1-42: 0.01 to 100 μM, FIG. 11
Description: Briefly, hippocampal cells obtained from embryonic stage 18 rat fetuses were dispersed mechanically in the presence of 0.125% trypsin and plated onto poly-L-lysine coated glass coverslips in 24 well plates at 250,000 cells per well (resulting in adhering cell densities of about 1250 cells per mm^2) in chemically-defined N2 culture media containing 5% fetal bovine serum. Gradual reduction of serum began on day 10 in vitro with daily 1:1 volume replacements with chemically-defined media, until a final concentration of 0.6% serum was achieved. […] In order to eliminate microglia, cultures were exposed to saporin (sap; a ribosome-inactivating protein; Davis and Wiley, 1989) coupled to acetylated LDL (ac-LDL) at a concentration of 10 μg/ml for 12 hours. […] Cultures depleted of microglia were then exposed to test substances in the presence or absence of exogenous microglia (100,000 cells per culture). […] Controls included cultures without saporin-treatment, cultures without test substances, and cultures with test substances but lacking microglia.
as §1

[5] = tested on: rat microglia; test: binding of Aβ-coupled microspheres to microglia; details: 4 hours at 37° C. (72 h in FIG. 23)
[6] = tested on: rat microglia / hippocampal neurons; details: rat microglia; mostly 1 μmole/l

With `Nc1ccccc1N` [phenylenediamine] the “neuroprotective activity (structure/function)” value ([1]; Example 14) was “little or no neuroprotective activity”.

With `CC(=O)NCCc1ccc(O)cc1` [acetylated tyramine] the “neuroprotective activity (structure/function)” value [1] was “little or no neuroprotective activity”.

For `N[C@@H](Cc1ccc(O)c(O)c1)C(=O)O` [DOPA], the “neuroprotective activity (structure/function)” value ([1]; Example 14) was “little or no neuroprotective activity”.

For `CNC[C@H](O)c1ccc(O)c(O)c1` [epinephrine], the “neuroprotective activity (structure/function)” value [1] was “little or no neuroprotective activity”.

In the case of chondroitin sulfate, the “inhibition of SpheresAβ1-42 binding by GAGs and scavenger receptor ligands” value [2] is reported as “only heparin sulfate blocked; also recorded: not similar compounds”.

`C=CCOC(=O)[C@@H](N)Cc1ccc(O)cc1` [tyrosine allyl ester] was tested, and the protective effect [1] was “neuron survival was markedly enhanced” and the “neuroprotective activity (structure/function)” value ([1]; Example 14) was “enhance neuroprotective effects”.

With `NC(CCCCCP(=O)(O)O)C(=O)O` (stereo not drawn) [AP7] the “drug blockade of neuron killing, human microglia” value [3] was “blocked neuron death” and the “drug blockade of neuron killing, rat microglia” value [4] was “prevented neuronal loss; also recorded: blocked neuron death”.

With “Aβ36-42: Aβ peptide residues 36-42 (VGGVVIA; Amyloid-beta protein 42; UniProt P05067 707-713, looked up, fragment)” the “binding of peptide-coupled microspheres to microglia” value (shortened to “binding … to microglia”) [5] was “little cell binding”, the “inhibition of SpheresAβ1-42 binding by peptides” value [2] was “did not” and the “blocking of Aβ1-42 induced microglial neurotoxicity by peptides” value ([4]; 10 μmoles/liter peptide, 1 μmole/liter Aβ1-42) was “did not”.

For `NCCc1ccccc1` [phenethylamine], the “neuroprotective activity (structure/function)” value ([1]; Example 14) was “little or no neuroprotective activity”.

For `NC(=O)[C@@H](N)Cc1ccc(O)cc1` [tyrosinamide], the “neuroprotective activity (structure/function)” value ([1]; Example 14) was “little or no neuroprotective activity”.

For `N[C@@H](Cc1ccc(O)cc1)C(=O)Nc1ccc2ccccc2c1` [tyrosine β-naphthylamide], the “neuroprotective activity (structure/function)” value ([1]; Example 14) was “enhance neuroprotective effects”.

`NC(Cc1cc(O)c(O)cc1O)C(=O)O` (stereo not drawn) [6--OH DOPA] was tested, and the “neuroprotective activity (structure/function)” value ([1]; Example 14) was “little or no neuroprotective activity”.

With `NC[C@H](O)c1ccc(O)c(O)c1` [norepinephrine] the “neuroprotective activity (structure/function)” value ([1]; Example 14) was “little or no neuroprotective activity”.

In the case of `CC(C)(C)OC(=O)[C@@H](N)Cc1cc(I)c(O)c(I)c1` [di-iodinated tyrosine t-butyl ester], the neuroprotective effect [1] is reported as “have neuroprotective effects” and the “neuroprotective activity (structure/function)” value ([1]; Example 14) is reported as “enhance neuroprotective effects”.

In the case of `COC(=O)[C@@H](N)Cc1ccc(O)cc1` [tyrosine methyl ester], the “neuroprotective activity (structure/function)” value ([1]; Example 14) is reported as “little or no neuroprotective activity”.

In the case of `CC(C)(C)OC(=O)[C@@H](N)Cc1ccc(O)c(I)c1` [mono-iodinated tyrosine t-butyl ester], the neuroprotective effect [1] is reported as “have neuroprotective effects” and the “neuroprotective activity (structure/function)” value ([1]; Example 14) is reported as “enhance neuroprotective effects”.

tyrosine butyl ester was tested, and the protective effect [1] was “neuron survival was markedly enhanced”.

With `CCN(CC)CCCC(C)Nc1ccnc2cc(Cl)ccc12` (stereo not drawn) [chloroquine] the “effect of immunosuppressive drugs on microglia stimulated by Aβ1-42” value ([4]; 0.1 to 10 μM, FIG. 10) was “had a protective effect; also recorded: inhibit neuron killing”.

`NCCc1ccc(O)c(O)c1` [dopamine] was tested, and the “neuroprotective activity (structure/function)” value [1] was “little or no neuroprotective activity”.

“Aβ10-42: Aβ peptide residues 10-42 (YEVHHQKLVFFAEDVGSNKGAIIGLMVGGVVIA; Amyloid-beta protein 42; UniProt P05067 681-713, looked up, fragment)” was tested, and the “binding … to microglia” value [5] was “bound to microglia”.

`O=c1c(-c2ccc(O)cc2)coc2cc(O)cc(O)c12` [genistein] was tested, and the “effect of signal transduction inhibitors on microglia stimulated by Aβ1-42” value [4] was “had a protective effect”.

`NCCc1cc(O)c(O)cc1O` [6--OH dopamine] was tested, and the “neuroprotective activity (structure/function)” value ([1]; Example 14) was “little or no neuroprotective activity”.

With `CCCCOc1ccc(O)cc1` [4-butoxyphenol] the “neuroprotective activity (structure/function)” value ([1]; Example 14) was “little or no neuroprotective activity”.

For `CCOC(=O)[C@@H](N)Cc1ccc(O)cc1` [tyrosine ethyl ester], the “neuroprotective activity (structure/function)” value ([1]; Example 14) was “little or no neuroprotective activity”.

With “Aβ17-43-microspheres: Aβ17-43 coupled to fluorescent microspheres (LVFFAEDVGSNKGAIIGLMVGGVVIAT; also: coupled to fluorescent microspheres; UniProt P05067 688-714, looked up, fragment)” the “binding … to microglia” value [5] was “no consistent association with microglia” and the “binding … to microglia” value ([5]; listed as Aβ17-43 coupled microspheres) was “not engulfed by microglia”.

`Oc1cccc(O)c1` [resorcinol] was tested, and the “neuroprotective activity (structure/function)” value ([1]; Example 14) was “little or no neuroprotective activity”.

`N[C@@H](Cc1ccc(O)cc1)C(=O)O` [tyrosine] was tested, and the protective effect [1] was “no protective effect” and the “neuroprotective activity (structure/function)” value ([1]; Example 14) was “little or no neuroprotective activity”.

For `NNC(=O)[C@@H](N)Cc1ccc(O)cc1` [tyrosine hydrazide], the “neuroprotective activity (structure/function)” value ([1]; Example 14) was “little or no neuroprotective activity”.

In the case of “Aβ1-42Gln13Gln14: synthetic peptide Aβ1-42Gln13Gln14”, the “inhibition of SpheresAβ1-42 binding by peptides” value [2] is reported as “unable to block” and the “induction of neurotoxic microglia / neuron killing” value [6] is reported as “unable to elicit neurotoxic responses”.

For `CN[C@@H](C)[C@H](O)c1ccccc1` [ephedrine], the “neuroprotective activity (structure/function)” value ([1]; Example 14) was “little or no neuroprotective activity”.

For heparin sulfate, the “inhibition of SpheresAβ1-42 binding by GAGs and scavenger receptor ligands” value [2] was “blocked; also recorded: reduction of binding” and the “inhibition of SpheresAβ1-42 binding by GAGs and scavenger receptor ligands” value ([2]; listed as heparan sulfate) was “block Aβ binding to microglia”.

In the case of `COc1c(C=O)c(O)cc2c1C(=O)c1ccccc1C2=O` [damacanthal], the “effect of signal transduction inhibitors on microglia stimulated by Aβ1-42” value [4] is reported as “had a protective effect”.
